18 compounds from patent publication US20240382483A1, “HETEROCYCLIC EGFR INHIBITORS FOR USE IN THE TREATMENT OF CANCER” (Blueprint Medicines Corporation, priority 2021, published 2024) can be followed below.

Structures are written as SMILES. Where two headings read alike, the source gives them in different places. A value given as a limit tells only on which side of the number the result lay.

Test [1] deals with T1, intracellular phosphorylation of EGFR in NCI-H1975 cell line that harbors the EGFR L858R T790M mutations (Homo sapiens, UniProt P00533, L858R/T790M).
T1 construct: NCI-H1975 cell line that harbors the EGFR L858R T790M mutations (ATCC, CRL-5908); host or cells: NCI-H1975
T1 sequence (P00533 25-1210 T790M/L858R): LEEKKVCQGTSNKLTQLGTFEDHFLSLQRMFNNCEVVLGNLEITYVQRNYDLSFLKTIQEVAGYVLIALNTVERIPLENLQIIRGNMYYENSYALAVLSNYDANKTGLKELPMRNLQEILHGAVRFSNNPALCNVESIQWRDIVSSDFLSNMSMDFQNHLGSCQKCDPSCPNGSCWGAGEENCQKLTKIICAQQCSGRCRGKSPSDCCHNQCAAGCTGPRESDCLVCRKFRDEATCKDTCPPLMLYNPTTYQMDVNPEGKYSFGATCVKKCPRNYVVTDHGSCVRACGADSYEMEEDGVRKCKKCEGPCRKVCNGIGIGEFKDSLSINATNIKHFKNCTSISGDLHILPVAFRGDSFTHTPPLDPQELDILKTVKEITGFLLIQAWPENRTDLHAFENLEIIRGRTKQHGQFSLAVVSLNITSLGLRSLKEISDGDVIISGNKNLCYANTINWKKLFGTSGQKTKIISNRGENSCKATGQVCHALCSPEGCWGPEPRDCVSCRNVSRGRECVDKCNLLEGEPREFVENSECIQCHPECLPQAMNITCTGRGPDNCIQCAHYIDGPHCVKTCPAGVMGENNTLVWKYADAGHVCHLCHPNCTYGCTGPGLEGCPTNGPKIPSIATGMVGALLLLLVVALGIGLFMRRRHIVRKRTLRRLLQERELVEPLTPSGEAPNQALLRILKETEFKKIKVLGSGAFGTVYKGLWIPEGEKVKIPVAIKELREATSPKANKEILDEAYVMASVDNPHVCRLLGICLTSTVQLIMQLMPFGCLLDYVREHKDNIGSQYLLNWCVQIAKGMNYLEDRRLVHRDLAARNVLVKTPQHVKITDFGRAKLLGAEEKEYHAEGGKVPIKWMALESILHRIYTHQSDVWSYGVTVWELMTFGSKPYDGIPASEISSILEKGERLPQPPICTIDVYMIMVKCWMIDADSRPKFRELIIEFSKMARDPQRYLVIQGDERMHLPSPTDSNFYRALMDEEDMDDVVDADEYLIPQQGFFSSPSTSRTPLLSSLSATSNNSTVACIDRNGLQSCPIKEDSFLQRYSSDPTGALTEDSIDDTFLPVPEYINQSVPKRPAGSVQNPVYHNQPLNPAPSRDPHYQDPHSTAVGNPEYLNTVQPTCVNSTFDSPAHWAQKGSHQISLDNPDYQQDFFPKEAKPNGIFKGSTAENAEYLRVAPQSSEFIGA
Briefly: NCI-H1975 pEGFR AlphaLISA assay. It is filed as cell-based. To be noted: NCI-H1975 cells (EGFR L858R T790M), p-EGFR (Tyr1068), 4-5 hours incubation; read-out: Ext pEGFR H1975 GMean IC50 (nM) Protocol: @Pharmaron AlphaLISA (Num). The procedure:
On the next day, the test compounds and DMSO control were added into H1975 cell plate followed by incubation at 37C/5% CO2 for 4-5 hours. […] Then 5 μL of a donor bead mix was added to each well followed by overnight incubation at room temperature in dark. On the next day, the plate was read at a compatible plate reader to obtain pEGFR signal. Percent of pEGFR inhibition was plotted against log concentration of compounds to generate IC50 values.

For the next test, the target named is T2, EGFR (L858R T790M C797S) (Homo sapiens, UniProt P00533, C797S/L858R/T790M).
T2 construct: purchased SignalChem E10-122VG
T2 sequence (P00533 25-1210 T790M/C797S/L858R): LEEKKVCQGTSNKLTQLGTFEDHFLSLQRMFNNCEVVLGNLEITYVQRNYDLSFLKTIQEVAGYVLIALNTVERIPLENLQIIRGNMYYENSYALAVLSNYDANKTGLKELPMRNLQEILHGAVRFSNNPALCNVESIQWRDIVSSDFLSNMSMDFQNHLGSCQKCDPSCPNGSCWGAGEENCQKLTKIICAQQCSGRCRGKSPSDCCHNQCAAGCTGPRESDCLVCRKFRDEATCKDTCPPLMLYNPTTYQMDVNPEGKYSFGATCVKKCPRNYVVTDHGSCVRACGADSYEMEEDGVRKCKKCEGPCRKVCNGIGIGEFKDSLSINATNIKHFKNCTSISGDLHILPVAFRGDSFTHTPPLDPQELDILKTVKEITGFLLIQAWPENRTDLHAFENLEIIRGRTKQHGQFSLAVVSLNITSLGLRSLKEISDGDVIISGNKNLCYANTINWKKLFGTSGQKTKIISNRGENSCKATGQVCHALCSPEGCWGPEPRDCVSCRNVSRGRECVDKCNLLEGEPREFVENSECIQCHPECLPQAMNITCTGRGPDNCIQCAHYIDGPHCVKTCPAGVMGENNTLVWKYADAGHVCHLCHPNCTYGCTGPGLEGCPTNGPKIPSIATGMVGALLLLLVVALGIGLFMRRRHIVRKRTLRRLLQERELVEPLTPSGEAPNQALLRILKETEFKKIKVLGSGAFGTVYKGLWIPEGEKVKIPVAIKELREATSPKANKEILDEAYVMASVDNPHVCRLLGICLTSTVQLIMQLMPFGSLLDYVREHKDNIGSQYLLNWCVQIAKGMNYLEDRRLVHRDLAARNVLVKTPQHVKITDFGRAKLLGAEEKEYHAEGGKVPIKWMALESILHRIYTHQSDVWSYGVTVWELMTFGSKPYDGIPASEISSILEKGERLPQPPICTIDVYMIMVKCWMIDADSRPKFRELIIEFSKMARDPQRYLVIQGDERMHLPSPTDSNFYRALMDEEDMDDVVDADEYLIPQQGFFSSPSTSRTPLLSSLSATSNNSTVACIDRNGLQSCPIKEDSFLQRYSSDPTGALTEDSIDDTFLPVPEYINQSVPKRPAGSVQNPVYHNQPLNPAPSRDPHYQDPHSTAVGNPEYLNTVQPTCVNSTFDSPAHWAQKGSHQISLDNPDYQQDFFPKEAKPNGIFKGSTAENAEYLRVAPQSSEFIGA
The test can be described thus: Biochemical EGFR inhibition assay (Caliper mobility shift), EGFR LRTMCS. In outline: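 Caliper mobility shift read-out: product and substrate peptides separated by electrophoresis and quantified. Reactions at 25° C. taken to 10–20% peptide phosphorylation, quenched with 35 mM EDTA. Apparent IC50 from percent activity vs log [compound].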

The mark [2] stands for this setting: LRTMCS (PH) IC50 (nM) @ 1 mM ATP (Num), EGFR LRTMCS mutant.

Turning to `CO[C@@H]1CCN(c2nccc(Nc3cc4c(C(C)C)cnc(N5C[C@H](OCCO)[C@H]5C)c4cn3)n2)C[C@@H]1F` [Example 148, 2-(((2R,3S)-1-(6-((2-((3S,4R)-3-fluoro-4-methoxypiperidin-1-yl)pyrimidin-4-yl)amino)-4-isopropyl-2,7-naphthyridin-1-yl)-2-methylazetidin-3-yl)oxy)ethan-1-ol], the figures for the IC50 (in test [1]; on EGFR (L858R T790M C797S) (setting [2])) were below 10 nM and below 15 nM, respectively.

On to `Cc1nnc(C2CN(c3ccc(C(C)C)c4cc(Nc5ccnc(N6CC[C@@H](O)[C@@](C)(F)C6)n5)ncc34)C2)o1` [Example 104, (3S,4R)-3-fluoro-1-(4-((5-isopropyl-8-(3-(5-methyl-1,3,4-oxadiazol-2-yl)azetidin-1-yl)isoquinolin-3-yl)amino)pyrimidin-2-yl)-3-methylpiperidin-4-ol], for which the IC50 in test [1] is below 10 nM; at EGFR (L858R T790M C797S) (setting [2]) it was below 15 nM.

For the compound `CC(C)c1ccc(N2C[C@H](n3ccnn3)[C@H]2C)c2cnc(Nc3ccnc(N4CCC(C)(O)CC4)n3)cc12` [Example 129, 1-(4-((5-isopropyl-8-((2R,3S)-2-methyl-3-(1H-1,2,3-triazol-1-yl)azetidin-1-yl)isoquinolin-3-yl)amino)pyrimidin-2-yl)-4-methylpiperidin-4-ol], the results for the IC50 (in test [1]; on EGFR (L858R T790M C797S) (setting [2])) were 20 to 30 nM and 30 to 100 nM, respectively.

On to `CC(C)c1ncc(-c2cnn(C)c2)c2cnc(Nc3ccnc(N4CC[C@@H](O)[C@@](C)(F)C4)n3)cc12` [Example 14, (3S,4R)-3-fluoro-1-(4-((5-isopropyl-8-(1-methyl-1H-pyrazol-4-yl)-2,6-naphthyridin-3-yl)amino)pyrimidin-2-yl)-3-methylpiperidin-4-ol], for which the results for the IC50 (in test [1]; at EGFR (L858R T790M C797S) (setting [2])) were above 50 nM and below 15 nM, respectively.

As to `CC(C)c1cnc(N2CCC(F)(F)C2)c2cnc(Nc3ccnc(N4CC[C@@H](O)[C@@](C)(F)C4)n3)cc12` [Example 57, (3S,4R)-1-(4-((8-(3,3-difluoropyrrolidin-1-yl)-5-isopropyl-2,7-naphthyridin-3-yl)amino)pyrimidin-2-yl)-3-fluoro-3-methylpiperidin-4-ol], the IC50 in test [1] was 20 to 30 nM; on EGFR (L858R T790M C797S) (setting [2]), below 15 nM.

Take `C[C@H](CO)c1ccc(N2CC[C@H]2C)c2cnc(Nc3ccnc(N4CC[C@@H](O)[C@@](C)(F)C4)n3)cc12` (single isomer, unassigned) [Example 158, (3S,4R)-3-fluoro-1-(4-((5-((S)-1-hydroxypropan-2-yl)-8-((R)-2-methylazetidin-1-yl)isoquinolin-3-yl)amino)pyrimidin-2-yl)-3-methylpiperidin-4-ol or (3S,4R)-3-fluoro-1-(4-((5-((R)-1-hydroxypropan-2-yl)-8-((R)-2-methylazetidin-1-yl)isoquinolin-3-yl)amino)pyrimidin-2-yl)-3-methylpiperidin-4-ol]: the results for the IC50 (in test [1]; at EGFR (L858R T790M C797S) (setting [2])) were 30 to 50 nM and 15 to 20 nM, respectively.

Take `CCc1cnc(N2CC[C@@H]2C)c2cnc(Nc3ccnc(N4CC[C@@H](O)[C@@](C)(F)C4)n3)cc12` (single isomer, unassigned) [Example 181, (3S,4R)-1-(4-((5-ethyl-8-((S)-2-methylazetidin-1-yl)-2,7-naphthyridin-3-yl)amino)pyrimidin-2-yl)-3-fluoro-3-methylpiperidin-4-ol or (3S,4R)-1-(4-((5-ethyl-8-((R)-2-methylazetidin-1-yl)-2,7-naphthyridin-3-yl)amino)pyrimidin-2-yl)-3-fluoro-3-methylpiperidin-4-ol]: the IC50 in test [1] was 30 to 50 nM; at EGFR (L858R T790M C797S) (setting [2]), 15 to 20 nM.

`CNC(=O)CC1CN(c2ncc(C(C)C)c3cc(Nc4ccnc(N5CC[C@@H](O)[C@@](C)(F)C5)n4)ncc23)C1` [Example 87, 2-(1-(6-((2-((3S,4R)-3-fluoro-4-hydroxy-3-methylpiperidin-1-yl)pyrimidin-4-yl)amino)-4-isopropyl-2,7-naphthyridin-1-yl)azetidin-3-yl)-N-methylacetamide]: the IC50 in test [1] is 20 to 30 nM; on EGFR (L858R T790M C797S) (setting [2]), below 15 nM.

Take `CC(C)Oc1cnc(N2CC[C@H]2C)c2cnc(Nc3ccnc(N4CC[C@@H](O)[C@@H](F)C4)n3)cc12` [Example 153, (3S,4R)-3-fluoro-1-(4-((5-isopropoxy-8-((R)-2-methylazetidin-1-yl)-2,7-naphthyridin-3-yl)amino)pyrimidin-2-yl)piperidin-4-ol]: the IC50 is above 50 nM in test [1] and 30 to 100 nM on EGFR (L858R T790M C797S) (setting [2]).

Take `CC(C)c1cnc(N2CC3(CN(C)C(=O)O3)C2)c2cnc(Nc3ccnc(N4CC[C@@H](O)[C@@](C)(F)C4)n3)cc12` [Example 71, 2-(6-((2-((3S,4R)-3-fluoro-4-hydroxy-3-methylpiperidin-1-yl)pyrimidin-4-yl)amino)-4-isopropyl-2,7-naphthyridin-1-yl)-7-methyl-5-oxa-2,7-diazaspiro[3.4]octan-6-one]: the values for the IC50 (in test [1]; at EGFR (L858R T790M C797S) (setting [2])) were 30 to 50 nM and 20 to 30 nM, respectively.

On to `CC(C)c1nnc(N2CCCC2)c2cnc(Nc3ccnc(N4CC[C@@H](O)[C@@](C)(F)C4)n3)cc12` [Example 114, (3S,4R)-3-fluoro-1-(4-((1-isopropyl-4-(pyrrolidin-1-yl)pyrido[3,4-d]pyridazin-7-yl)amino)pyrimidin-2-yl)-3-methylpiperidin-4-ol], for which the IC50 in test [1] was above 50 nM; at EGFR (L858R T790M C797S) (setting [2]), 30 to 100 nM.

Consider `CO[C@@H]1CCN(c2cc(Nc3cc4c(C(C)C)ccc(N5CC(n6ccnn6)C5)c4cn3)ccn2)C[C@@H]1O` (single isomer, unassigned) [Example 126, (3S,4R)-1-(4-((8-(3-(1H-1,2,3-triazol-1-yl)azetidin-1-yl)-5-isopropylisoquinolin-3-yl)amino)pyridin-2-yl)-4-methoxypiperidin-3-ol or (3R,4S)-1-(4-((8-(3-(1H-1,2,3-triazol-1-yl)azetidin-1-yl)-5-isopropylisoquinolin-3-yl)amino)pyridin-2-yl)-4-methoxypiperidin-3-ol], for which the values for the IC50 (in test [1]; on EGFR (L858R T790M C797S) (setting [2])) were 10 to 20 nM and below 15 nM, respectively.

Take `CC(C)c1ccc(N2CC(C)(c3nnco3)C2)c2cnc(Nc3ccnc(N4CC[C@@H](O)[C@@](C)(F)C4)n3)cc12` [Example 113, (3S,4R)-3-fluoro-1-(4-((5-isopropyl-8-(3-methyl-3-(1,3,4-oxadiazol-2-yl)azetidin-1-yl)isoquinolin-3-yl)amino)pyrimidin-2-yl)-3-methylpiperidin-4-ol]: the IC50 in test [1] lay within 10 to 20 nM; on EGFR (L858R T790M C797S) (setting [2]) it was 20 to 30 nM.

Consider `CC(C)c1ncc(-c2ncn(C)n2)c2cnc(Nc3ccnc(N4CC[C@@H](O)[C@@](C)(F)C4)n3)cc12` [Example 6, (3S,4R)-3-fluoro-1-(4-((5-isopropyl-8-(1-methyl-1H-1,2,4-triazol-3-yl)-2,6-naphthyridin-3-yl)amino)pyrimidin-2-yl)-3-methylpiperidin-4-ol], for which the figures for the IC50 (in test [1]; on EGFR (L858R T790M C797S) (setting [2])) were above 50 nM and below 15 nM, respectively.

As for `CC(C)c1cnc(N2C[C@H](O)[C@H]2C)c2cnc(Nc3ccnc(N4CC[C@@](C)(O)[C@@H](F)C4)n3)cc12` (single isomer, unassigned) [Example 173, (3S,4R)-3-fluoro-1-(4-((8-((2R,3S)-3-hydroxy-2-methylazetidin-1-yl)-5-isopropyl-2,7-naphthyridin-3-yl)amino)pyrimidin-2-yl)-4-methylpiperidin-4-ol or (3R,4S)-3-fluoro-1-(4-((8-((2R,3S)-3-hydroxy-2-methylazetidin-1-yl)-5-isopropyl-2,7-naphthyridin-3-yl)amino)pyrimidin-2-yl)-4-methylpiperidin-4-ol], the figures for the IC50 (in test [1]; on EGFR (L858R T790M C797S) (setting [2])) were 30 to 50 nM and below 15 nM, respectively.

On to `CC(=O)N1CC(c2ccc(C(C)C)c3cc(Nc4ccnc(N5CC[C@@H](O)[C@@](C)(F)C5)n4)ncc23)C1` [Example 4, 1-(3-(3-((2-((3S,4R)-3-fluoro-4-hydroxy-3-methylpiperidin-1-yl)pyrimidin-4-yl)amino)-5-isopropylisoquinolin-8-yl)azetidin-1-yl)ethan-1-one], for which the IC50 in test [1] was 20 to 30 nM; on EGFR (L858R T790M C797S) (setting [2]), below 15 nM.

For the compound `COC1CN(c2ccc([C@@H](C)CO)c3cc(Nc4ccnc(N5CC[C@@H](O)[C@@](C)(F)C5)n4)ncc23)C1` (single isomer, unassigned) [Example 180, (3S,4R)-3-fluoro-1-(4-((5-((R)-1-hydroxypropan-2-yl)-8-(3-methoxyazetidin-1-yl)isoquinolin-3-yl)amino)pyrimidin-2-yl)-3-methylpiperidin-4-ol or (3S,4R)-3-fluoro-1-(4-((5-((S)-1-hydroxypropan-2-yl)-8-(3-methoxyazetidin-1-yl)isoquinolin-3-yl)amino)pyrimidin-2-yl)-3-methylpiperidin-4-ol], the IC50 was above 50 nM in test [1] and 30 to 100 nM on EGFR (L858R T790M C797S) (setting [2]).

In the case of `C[C@H](c1cnc(N2CC[C@H]2C)c2cnc(Nc3ccnc(N4CC[C@@H](O)[C@@](C)(F)C4)n3)cc12)C1COC1` (single isomer, unassigned) [Example 177, (3S,4R)-3-fluoro-3-methyl-1-(4-((8-((R)-2-methylazetidin-1-yl)-5-((S)-1-(oxetan-3-yl)ethyl)-2,7-naphthyridin-3-yl)amino)pyrimidin-2-yl)piperidin-4-ol or (3S,4R)-3-fluoro-3-methyl-1-(4-((8-((R)-2-methylazetidin-1-yl)-5-((R)-1-(oxetan-3-yl)ethyl)-2,7-naphthyridin-3-yl)amino)pyrimidin-2-yl)piperidin-4-ol], the IC50 in test [1] is 20 to 30 nM; on EGFR (L858R T790M C797S) (read-out: LRTMCS (PH) IC50 (nM) @ 1 mM ATP (Num), EGFR LRTMCS mutant) it was below 15 nM.

A word on the IC50: it is the concentration that inhibits the measured activity by half.
